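Where inhibition never reached the appropriate level, the endpoint shown equals the highest concentration tested. Otherwise, values were interpolated linearly from a five-concentration, 48-hour dose response in 96-well plates. At the GI50, growth is halved.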 Activity calls are given as the source filed them. No stated cut-off is given here; in the data, active = GI50 up to about 1.1 µM and inactive = higher.
Experiments:
Experiment in all cases: NCI-60 cell line screen, 48 h
[1] = system: A549
[2] = system: CCRF-CEM
[3] = system: EKVX
[4] = system: HCT-116
[5] = system: HCT-15
[6] = system: HL-60
[7] = system: HOP-92
[8] = system: IGROV-1
[9] = system: KM12
[10] = system: MCF7
[11] = system: MDA-N
[12] = system: MOLT-4
[13] = system: PC-3
[14] = system: SNB-19
[15] = system: SNB-75
[16] = system: SR
[17] = system: SW-620
[18] = system: U-251
[19] = system: UACC-257
[20] = system: UO-31

Row | Compound | GI50 [1] | GI50 [2] | GI50 [3] | GI50 [4] | GI50 [5] | GI50 [6] | GI50 [7] | GI50 [8] | GI50 [9] | GI50 [10] | GI50 [11] | GI50 [12] | GI50 [13] | GI50 [14] | GI50 [15] | GI50 [16] | GI50 [17] | GI50 [18] | GI50 [19] | GI50 [20]
1 | CNC(=O)/C(=C/c1ccc(OC)cc1)c1cc(OC)c(OC)c(OC)c1 | 1.69 µM (inactive) | 2.32 µM (inactive) | 10.1 µM (inactive) | 1.55 µM (inactive) | 0.743 µM | 0.493 µM (active) | 13.9 µM (inactive) | 4.76 µM (inactive) | 0.598 µM (active) | 0.769 µM (active) | 0.206 µM (active) | 2.33 µM (inactive) | 1.03 µM (active) | 4.58 µM (inactive) | 1.14 µM (inactive) | 0.513 µM (active) | 0.802 µM (active) | 2.81 µM (inactive) | 5.08 µM (inactive) | 6.44 µM (inactive)
2 | Oc1cccc2c(Cl)ccnc12 | 3.44 µM (inactive) | 0.266 µM (active) | 11.7 µM (inactive) | 0.279 µM (active) | 0.305 µM | 0.124 µM (active) | 2.84 µM (inactive) | 1.61 µM (inactive) | 4.93 µM (inactive) | 1.11 µM (active) | 3.58 µM (inactive) | 0.376 µM (active) | 1.67 µM (inactive) | 23 µM (inactive) | 28.5 µM (inactive) | 0.243 µM (active) | 0.778 µM (active) | 1.45 µM (inactive) | 3.1 µM (inactive) | 1.37 µM (inactive)
3 | O=S(=O)(O)SCCNCCCCCC1CCCCC1 | 7.8 µM (inactive) | 6.24 µM (inactive) | 9.73 µM (inactive) | 5.05 µM (inactive) | 8.77 µM | 7.29 µM (inactive) | 20.8 µM (inactive) | 8.65 µM (inactive) | 2.79 µM (inactive) | 2.75 µM (inactive) | 12.8 µM (inactive) | 8.05 µM (inactive) | 8.02 µM (inactive) | 5.46 µM (inactive) | 3.56 µM (inactive) | 8.99 µM (inactive) | 7.78 µM (inactive) | 5.46 µM (inactive) | 6.61 µM (inactive) | 13.9 µM (inactive)
4 | O=C(O)CC(Cc1ccc2c(c1)OCO2)C(=O)O (configuration not stated) | > 100 µM (inactive) | 56.2 µM (inactive) | > 100 µM (inactive) | > 100 µM (inactive) | > 100 µM | > 100 µM (inactive) | > 100 µM (inactive) | > 100 µM (inactive) | > 100 µM (inactive) | > 100 µM (inactive) | > 100 µM (inactive) | > 100 µM (inactive) | > 100 µM (inactive) | > 100 µM (inactive) | > 100 µM (inactive) | > 100 µM (inactive) | > 100 µM (inactive) | > 100 µM (inactive) | > 100 µM (inactive) | > 100 µM (inactive)
5 | COc1cc(/C=C/C(=N\NC(N)=S)c2sc(NNC(C)=O)nc2C)ccc1O | > 100 µM (inactive) | > 100 µM (inactive) | > 100 µM (inactive) | > 100 µM (inactive) | > 100 µM | 29.6 µM (inactive) | > 100 µM (inactive) | > 100 µM (inactive) | > 100 µM (inactive) | > 100 µM (inactive) | > 100 µM (inactive) | > 100 µM (inactive) | > 100 µM (inactive) | > 100 µM (inactive) | > 100 µM (inactive) | > 100 µM (inactive) | > 100 µM (inactive) | > 100 µM (inactive) | > 100 µM (inactive) | > 100 µM (inactive)
6 | CCOC(=O)/C=C(\N=P(c1ccccc1)(c1ccccc1)c1ccccc1)C(F)(F)C(F)(F)C(F)(F)C(F)(F)C(F)(F)F | > 100 µM (inactive) | > 100 µM (inactive) |  | > 100 µM (inactive) | > 100 µM | > 100 µM (inactive) | > 100 µM (inactive) | > 100 µM (inactive) | > 100 µM (inactive) | > 100 µM (inactive) | > 100 µM (inactive) | > 100 µM (inactive) | > 100 µM (inactive) | > 100 µM (inactive) | > 100 µM (inactive) | > 100 µM (inactive) | > 100 µM (inactive) | > 100 µM (inactive) | > 100 µM (inactive) | > 100 µM (inactive)
7 | COC(=O)c1cc(CNCCc2c[nH]c3ccccc23)on1 | > 100 µM (inactive) | > 100 µM (inactive) | > 100 µM (inactive) | > 100 µM (inactive) | > 100 µM | > 100 µM (inactive) | 92.5 µM (inactive) | > 100 µM (inactive) | > 100 µM (inactive) | > 100 µM (inactive) | > 100 µM (inactive) | > 100 µM (inactive) | > 100 µM (inactive) | > 100 µM (inactive) | > 65 µM (inactive) | > 100 µM (inactive) | > 100 µM (inactive) | > 100 µM (inactive) | > 100 µM (inactive) | > 100 µM (inactive)
8 | CC(C)c1cc2c(c(O)c1O)[C@@]1(C)CCCC(C)(C)C1=C(O)C2 | 1.66 µM (inactive) | 0.822 µM (active) | 1.37 µM (inactive) | 2.27 µM (inactive) | 1.68 µM | 1.34 µM (inactive) | 0.817 µM (active) | 1.04 µM (active) | 1.63 µM (inactive) | 0.982 µM (active) | 1.77 µM (inactive) | 1.4 µM (inactive) | 1.19 µM (inactive) | 2.42 µM (inactive) | 0.984 µM (active) | 1.7 µM (inactive) | 1.46 µM (inactive) | 1.51 µM (inactive) | 1.13 µM (inactive) | 1.36 µM (inactive)
9 | c1ccc(CN[C@]23C4C5CC6C7C5C2C7[C@@](NCc2ccccc2)(C64)N3Cc2ccccc2)cc1 (some centres not stated) | > 100 µM (inactive) | > 100 µM (inactive) | > 100 µM (inactive) | > 100 µM (inactive) | > 100 µM | > 100 µM (inactive) | > 100 µM (inactive) | > 100 µM (inactive) | > 100 µM (inactive) | > 100 µM (inactive) | > 100 µM (inactive) | > 100 µM (inactive) | > 100 µM (inactive) | > 100 µM (inactive) | > 100 µM (inactive) | 3.94 µM (inactive) | > 100 µM (inactive) | > 100 µM (inactive) | > 100 µM (inactive) | > 100 µM (inactive)
10 | COC(=O)C1(NC(=O)C(CC(=O)OCc2ccccc2)NC(=O)OCc2ccccc2)CCCCCCC1 (configuration not stated) | 32.1 µM (inactive) |  | 45.4 µM (inactive) | 27.9 µM (inactive) | 30.3 µM | 11.3 µM (inactive) | 42.9 µM (inactive) | 30 µM (inactive) | 48.3 µM (inactive) | 31.8 µM (inactive) | 28.6 µM (inactive) | 4.69 µM (inactive) | 7.96 µM (inactive) | 49.5 µM (inactive) | 28.6 µM (inactive) | 5.35 µM (inactive) | 31.3 µM (inactive) | 47.2 µM (inactive) |  | 35.6 µM (inactive)

Source: ChEMBL document CHEMBL1201862, “PubChem BioAssay data set” (2004)
